The values that follow come from ChEMBL document CHEMBL1126836, “Antiviral activity of C-alkylated purine nucleosides obtained by cross-coupling with tetraalkyltin reagents” (1993).

Holding throughout (type): functional
Common to all, as to conditions: Homo sapiens

Assay [1] concerns E6SM. Description: Tested for minimum inhibitory concentration against HSV-1 (KOS strain) in E6SM cells.
In assay [2] the test system is E6SM. Put plainly: Tested for minimum inhibitory concentration against HSV-2 ([…] strain) in E6SM cells.
For assay [3], the system named is E6SM. Description: Tested for minimum inhibitory concentration against Vaccinia virus in E6SM cells.
Assay [4] concerns E6SM. Description: Tested for minimum inhibitory concentration against vesicular stomatitis virus (VSV) in E6SM cells.
The test system of assay [5] is E6SM. Put plainly: Tested for minimum cytotoxic concentration on virus-induced cytopathicity in E6SM cells. In general terms: Protection from cytopathic effect is a common read-out in antiviral testing.
The subject of assay [6] is HeLa. Description: Tested for minimum cytotoxic concentration on RSV (respiratory syncytial virus)-induced cytopathicity in HeLa cells.
The test system of assay [7] is HeLa. Put plainly: Tested for minimum inhibitory concentration against RSV (respiratory syncytial virus) in HeLa cells.
In assay [8] the test system is E6SM. Put plainly: Tested for minimum inhibitory concentration against vesicular stomatitis virus (VSV) in E6SM cells.
Assay [9] deals with HeLa. Description: Tested for minimum inhibitory concentration against RSV in HeLa cells.
In assay [10] the test system is E6SM. Put plainly: Tested for minimum inhibitor concentration against vesicular stomatitis virus (VSV) in E6SM cells.
Assay [11] deals with HeLa. Description: Tested for minimum inhibitor concentration against RSV in HeLa cells.
The subject of assay [12] is E6SM. Description: Tested for minimum inhibitor concentration against vesicular stomatitis virus (VSV) in E6SM cells.

Each structure is given as a SMILES string. In brackets after ≈: the same amount, converted by molar mass. A value given as a limit tells only on which side of the number the result lay.

For the compound `C=Cc1nc2c(N)ncnc2n1C1CCC(CO)O1` (configuration not stated), the MIC against E6SM [1] was > 100 µg/mL; against E6SM [2] it was > 20 µg/mL.

For `Cc1nc2c(N)ncnc2n1C1CCC(CO)O1` (configuration not stated), the results for the MIC in the assay on E6SM [1] and against E6SM [2] were > 100 µg/mL and > 20 µg/mL, respectively.

For the compound `Cc1ncnc2c1ncn2[C@@H]1O[C@H](CO)[C@@H](O)[C@H]1O`, the MIC was determined as 0.4 µg/mL (≈ 1.5 µM) against E6SM [1], 0.04 µg/mL (≈ 0.15 µM) against E6SM [3], 0.4 µg/mL (≈ 1.5 µM) in the assay on E6SM [4] and 0.4 µg/mL (≈ 1.5 µM) against HeLa [7]. Besides, the values for the MCC in the assay on E6SM [5] and in the assay on HeLa [6] were 1 µg/mL and 0.8 µg/mL, respectively.

In the case of `Nc1nccc2c1ncn2[C@@H]1O[C@H](CO)[C@@H](O)[C@H]1O`, the values for the MIC in the assay with E6SM [1], in the assay with E6SM [3] and in the assay with E6SM [8] were > 400 µg/mL, 2 µg/mL (≈ 7.51 µM) and 0.7 µg/mL (≈ 2.63 µM), respectively. Besides, in the assay with E6SM [5], the MCC was > 400 µg/mL.

For the compound `C=Cc1nc2c(N)ncnc2n1[C@@H]1O[C@H](CO)[C@@H](O)[C@H]1O`, the MIC was found to be 2 µg/mL (≈ 6.82 µM) with E6SM [1], 40 µg/mL (≈ 136 µM) against E6SM [2], 7 µg/mL (≈ 23.9 µM) against E6SM [3] and 4 µg/mL (≈ 13.6 µM) with HeLa [9]. The results for the MCC in the assay with E6SM [5] and with HeLa [6] were > 400 µg/mL and 70 µg/mL, respectively.

For the compound `CCc1nc(N)c2ncn(C3O[C@H](CO)[C@@H](O)[C@H]3O)c2n1` (some centres not stated), the MIC against E6SM [10] is > 10 µg/mL; against E6SM [1], > 10 µg/mL; in the assay on E6SM [3], 7 µg/mL (≈ 23.7 µM); in the assay with HeLa [11], 0.8 µg/mL (≈ 2.71 µM). In addition, the values for the MCC in the assay on E6SM [5] and with HeLa [6] were > 10 µg/mL and 4 µg/mL, respectively.

Consider `C=Cc1ncnc2c1ncn2C1O[C@H](CO)[C@@H](O)[C@H]1O` (some centres not stated), for which the MIC in the assay on E6SM [1] is 2 µg/mL (≈ 7.19 µM); in the assay with E6SM [3], > 4 µg/mL; against E6SM [4] it was > 4 µg/mL; against HeLa [9] it was > 4 µg/mL. In addition, the values for the MCC in the assay on E6SM [5] and in the assay with HeLa [6] were 10 µg/mL and 4 µg/mL, respectively.

For `CCc1nc2c(N)ncnc2n1C1O[C@H](CO)[C@@H](O)[C@H]1O` (some centres not stated), the MIC against E6SM [1] is > 100 µg/mL; with E6SM [3], 0.2 µg/mL (≈ 0.677 µM); with E6SM [8], > 200 µg/mL; in the assay on HeLa [9], 10 µg/mL (≈ 33.9 µM). Besides, the MCC was > 100 µg/mL in the assay with E6SM [5] and 100 µg/mL in the assay on HeLa [6].

On to `Cc1nc2c(N)ncnc2n1C1O[C@H](CO)[C@@H](O)[C@H]1O` (some centres not stated), for which the MIC against E6SM [1] was > 100 µg/mL; against E6SM [3], 0.2 µg/mL (≈ 0.711 µM); in the assay on E6SM [8] it was > 200 µg/mL; in the assay with HeLa [9], 4 µg/mL (≈ 14.2 µM). For the same compound, the MCC with E6SM [5] was > 200 µg/mL; with HeLa [6], 20 µg/mL.

As for `O=c1[nH]c(=O)n([C@H]2C[C@H](O)[C@@H](CO)O2)cc1/C=C/Br` [BRIVUDINE], the figures for the MIC in the assay with E6SM [12], in the assay with E6SM [1] and against E6SM [3] were > 400 µg/mL, 0.02 µg/mL (≈ 0.06 µM) and 0.4 µg/mL (≈ 1.2 µM), respectively. Moreover, the MCC in the assay with E6SM [5] was > 400 µg/mL.

Turning to `NC(=O)c1ncn([C@@H]2O[C@H](CO)[C@@H](O)[C@H]2O)n1` [RIBAVIRIN], the MIC is 20 µg/mL (≈ 81.9 µM) against E6SM [10], > 300 µg/mL against E6SM [1] and 70 µg/mL (≈ 287 µM) in the assay with E6SM [3]. Also, the MCC in the assay with E6SM [5] is > 400 µg/mL.
